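Values below derive from 48-hour exposures of cells grown in 96-well plates, with endpoints linearly interpolated between the two concentrations bracketing the appropriate inhibition level. The concentration for full growth arrest is given as TGI.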
system: OVCAR-5 ovarian; assay: DTP human tumour cell line panel, 48 h

| SMILES | TGI |
| --- | --- |
| COC(=O)C(C(=O)C(=O)Nc1cccc(OC)c1)c1cnc2ccccc2n1 (configuration not stated) | > 100 µM |
| O=C(O)CNc1cc(-c2ccccc2)nc(NCC(=O)O)n1 | > 100 µM |
| O=c1nc2occc2cn1C1CC(O)C(CO)O1 (configuration not stated) | > 100 µM |
| COC(=O)C12C3C4C1C1C2C3C41C(=O)OC(C)(C)C (configuration not stated) | > 100 µM |

system: LOX IMVI melanoma; assay: DTP human tumour cell line panel, 48 h

| SMILES | TGI |
| --- | --- |
| COC(=O)C(C(=O)C(=O)Nc1cccc(OC)c1)c1cnc2ccccc2n1 (configuration not stated) | > 100 µM |
| O=C(O)CNc1cc(-c2ccccc2)nc(NCC(=O)O)n1 | > 100 µM |
| O=c1nc2occc2cn1C1CC(O)C(CO)O1 (configuration not stated) | > 100 µM |
| COC(=O)C12C3C4C1C1C2C3C41C(=O)OC(C)(C)C (configuration not stated) | > 61.2 µM |

system: MALME-3M melanoma; assay: DTP human tumour cell line panel, 48 h

| SMILES | TGI |
| --- | --- |
| COC(=O)C(C(=O)C(=O)Nc1cccc(OC)c1)c1cnc2ccccc2n1 (configuration not stated) | > 100 µM |
| O=C(O)CNc1cc(-c2ccccc2)nc(NCC(=O)O)n1 | > 100 µM |
| O=c1nc2occc2cn1C1CC(O)C(CO)O1 (configuration not stated) | > 100 µM |
| COC(=O)C12C3C4C1C1C2C3C41C(=O)OC(C)(C)C (configuration not stated) | > 100 µM |

system: A498 renal; assay: DTP human tumour cell line panel, 48 h

| SMILES | TGI |
| --- | --- |
| COC(=O)C(C(=O)C(=O)Nc1cccc(OC)c1)c1cnc2ccccc2n1 (configuration not stated) | > 100 µM |
| O=c1nc2occc2cn1C1CC(O)C(CO)O1 (configuration not stated) | > 100 µM |
| COC(=O)C12C3C4C1C1C2C3C41C(=O)OC(C)(C)C (configuration not stated) | > 100 µM |

system: OVCAR-8 ovarian; assay: DTP human tumour cell line panel, 48 h

| SMILES | TGI |
| --- | --- |
| COC(=O)C(C(=O)C(=O)Nc1cccc(OC)c1)c1cnc2ccccc2n1 (configuration not stated) | > 100 µM |
| O=C(O)CNc1cc(-c2ccccc2)nc(NCC(=O)O)n1 | > 100 µM |
| O=c1nc2occc2cn1C1CC(O)C(CO)O1 (configuration not stated) | > 100 µM |
| COC(=O)C12C3C4C1C1C2C3C41C(=O)OC(C)(C)C (configuration not stated) | > 100 µM |

system: SNB-75 CNS; assay: DTP human tumour cell line panel, 48 h

| SMILES | TGI |
| --- | --- |
| COC(=O)C(C(=O)C(=O)Nc1cccc(OC)c1)c1cnc2ccccc2n1 (configuration not stated) | > 100 µM |
| O=C(O)CNc1cc(-c2ccccc2)nc(NCC(=O)O)n1 | > 100 µM |
| O=c1nc2occc2cn1C1CC(O)C(CO)O1 (configuration not stated) | > 100 µM |
| COC(=O)C12C3C4C1C1C2C3C41C(=O)OC(C)(C)C (configuration not stated) | > 100 µM |

system: SNB-78 CNS; assay: DTP human tumour cell line panel, 48 h

| SMILES | TGI |
| --- | --- |
| COC(=O)C(C(=O)C(=O)Nc1cccc(OC)c1)c1cnc2ccccc2n1 (configuration not stated) | > 100 µM |
| O=C(O)CNc1cc(-c2ccccc2)nc(NCC(=O)O)n1 | > 100 µM |
| O=c1nc2occc2cn1C1CC(O)C(CO)O1 (configuration not stated) | > 100 µM |
| COC(=O)C12C3C4C1C1C2C3C41C(=O)OC(C)(C)C (configuration not stated) | > 100 µM |

system: UACC-257 melanoma; assay: DTP human tumour cell line panel, 48 h

| SMILES | TGI |
| --- | --- |
| COC(=O)C(C(=O)C(=O)Nc1cccc(OC)c1)c1cnc2ccccc2n1 (configuration not stated) | > 100 µM |
| O=C(O)CNc1cc(-c2ccccc2)nc(NCC(=O)O)n1 | > 100 µM |
| O=c1nc2occc2cn1C1CC(O)C(CO)O1 (configuration not stated) | > 100 µM |
| COC(=O)C12C3C4C1C1C2C3C41C(=O)OC(C)(C)C (configuration not stated) | > 100 µM |

system: SK-MEL-5 melanoma; assay: DTP human tumour cell line panel, 48 h

| SMILES | TGI |
| --- | --- |
| COC(=O)C(C(=O)C(=O)Nc1cccc(OC)c1)c1cnc2ccccc2n1 (configuration not stated) | > 100 µM |
| O=C(O)CNc1cc(-c2ccccc2)nc(NCC(=O)O)n1 | > 100 µM |
| O=c1nc2occc2cn1C1CC(O)C(CO)O1 (configuration not stated) | > 100 µM |
| COC(=O)C12C3C4C1C1C2C3C41C(=O)OC(C)(C)C (configuration not stated) | > 100 µM |

system: MOLT-4 leukemia; assay: DTP human tumour cell line panel, 48 h

| SMILES | TGI |
| --- | --- |
| COC(=O)C(C(=O)C(=O)Nc1cccc(OC)c1)c1cnc2ccccc2n1 (configuration not stated) | > 100 µM |
| O=C(O)CNc1cc(-c2ccccc2)nc(NCC(=O)O)n1 | > 100 µM |
| O=c1nc2occc2cn1C1CC(O)C(CO)O1 (configuration not stated) | > 100 µM |
| COC(=O)C12C3C4C1C1C2C3C41C(=O)OC(C)(C)C (configuration not stated) | > 100 µM |

system: LXFL 529 NSCLC; assay: DTP human tumour cell line panel, 48 h

| SMILES | TGI |
| --- | --- |
| COC(=O)C(C(=O)C(=O)Nc1cccc(OC)c1)c1cnc2ccccc2n1 (configuration not stated) | > 100 µM |
| O=C(O)CNc1cc(-c2ccccc2)nc(NCC(=O)O)n1 | > 100 µM |
| O=c1nc2occc2cn1C1CC(O)C(CO)O1 (configuration not stated) | > 100 µM |
| COC(=O)C12C3C4C1C1C2C3C41C(=O)OC(C)(C)C (configuration not stated) | > 100 µM |

system: UACC-62 melanoma; assay: DTP human tumour cell line panel, 48 h

| SMILES | TGI |
| --- | --- |
| COC(=O)C(C(=O)C(=O)Nc1cccc(OC)c1)c1cnc2ccccc2n1 (configuration not stated) | > 100 µM |
| O=C(O)CNc1cc(-c2ccccc2)nc(NCC(=O)O)n1 | > 100 µM |
| O=c1nc2occc2cn1C1CC(O)C(CO)O1 (configuration not stated) | > 100 µM |
| COC(=O)C12C3C4C1C1C2C3C41C(=O)OC(C)(C)C (configuration not stated) | > 100 µM |

system: SK-MEL-28 melanoma; assay: DTP human tumour cell line panel, 48 h

| SMILES | TGI |
| --- | --- |
| COC(=O)C(C(=O)C(=O)Nc1cccc(OC)c1)c1cnc2ccccc2n1 (configuration not stated) | > 100 µM |
| O=C(O)CNc1cc(-c2ccccc2)nc(NCC(=O)O)n1 | > 100 µM |
| O=c1nc2occc2cn1C1CC(O)C(CO)O1 (configuration not stated) | > 100 µM |
| COC(=O)C12C3C4C1C1C2C3C41C(=O)OC(C)(C)C (configuration not stated) | > 100 µM |

system: HOP-18 NSCLC; assay: DTP human tumour cell line panel, 48 h

| SMILES | TGI |
| --- | --- |
| COC(=O)C(C(=O)C(=O)Nc1cccc(OC)c1)c1cnc2ccccc2n1 (configuration not stated) | > 100 µM |
| O=C(O)CNc1cc(-c2ccccc2)nc(NCC(=O)O)n1 | > 100 µM |
| O=c1nc2occc2cn1C1CC(O)C(CO)O1 (configuration not stated) | > 100 µM |
| COC(=O)C12C3C4C1C1C2C3C41C(=O)OC(C)(C)C (configuration not stated) | > 100 µM |

system: NCI-H23 lung; assay: DTP human tumour cell line panel, 48 h

| SMILES | TGI |
| --- | --- |
| COC(=O)C(C(=O)C(=O)Nc1cccc(OC)c1)c1cnc2ccccc2n1 (configuration not stated) | > 100 µM |
| O=C(O)CNc1cc(-c2ccccc2)nc(NCC(=O)O)n1 | > 100 µM |
